Results from patent publication US20080167532A1, “ASSESSING CANCER TREATMENT RESPONSIVENESS” (Mayo Foundation for Medical Education and Research, priority 2006, published 2008).

What was measured:
[1] = tested on: DRO cells; assay: DRO cell proliferation (cell counts over six days); assay type: cell-based, human; conditions: DRO cells treated every 48 hours over six days; read-out: IC50, concentration at which 50% of cell proliferation was inhibited
Experimental: . Cells were treated every 48 hours over six days. Cell numbers were counted and data were plotted as mean values ±S.D. The thiazolidinediones inhibited cell proliferation of DRO cells in a dose responsive fashion (FIG. 3B). […]. The EC50 concentrations were in close agreement with the IC50 concentrations for each compound (FIG. 3B).
. […] Cell numbers were counted and data were plotted as mean values ±S.D. (FIG. 9D).
DRO90-1 (DRO) and ARO81 (ARO) cells were derived from primary cultures of human anaplastic thyroid carcinoma tumors that were obtained from Dr. G. J. Juillard (University of California-Los Angeles, Los Angeles, Calif.), and KTC-2 and KTC3 cells were obtained from Dr. Junichi Kurebayashi (Podtcheko et al., J. Clin. Endocrinol. Metab., 88:1889-1896 (2003) and Pushkarev et al., Molecular mechanisms of the Effects of Low Concentrations of Taxol in Anaplastic Thyroid Cancer Cells. Endocrinology: en. 2004-0127 (2004)). Cells were cultured in RPMI 1640 medium (Cellgro, Herndon Va.) supplemented with 10% charcoal-stripped fetal bovine serum (Hyclone), non-essential amino acids, sodium pyruvate, and penicillin-streptomycin-amphotericin B at 37° C. in a humidified atmosphere with 5% CO^2. Charcoal-stripped serum was used to exclude endogenous PPAR ligands contained in serum. For proliferation studies, cells were plated in triplicate in 12-well culture plates at initial concentrations of 2×10^4 cells/well. After overnight incubation, cells were treated with 10 nM RS5444 or DMSO diluent (Sigma) for 6 days with medium, and drug changed every 48 hours. After 6 days, cells were washed with PBS (Cellgro), trypsinized, and counted by Beckman Coulter Counter (Beckman Instruments, Fullerton Calif.). […]. Cells were treated with either DMSO or 10 nM RS5444 (24 hours). After treatment, phase images were obtained on an inverted microscope. For real time PCR studies, cells were plated in 60 mm plates at 50% confluence and treated with 10 nM RS5444 for indicated incubation periods. […].
Cells were either plated in triplicate at 7.5×10^4 cells/mL in 6-well plates or 2×10^4 cells/well in 12-well plates, allowed to adhere overnight, and then transfected for 24 to 72 hours with 2 to 5 μg of either scrambled, p21^WAF1/CIP1 (1022539), RhoB (SI00058933) or PPAR-γ-specific siRNA duplexes (Qiagen Valencia, Calif.) using RNAiFect reagent (Qiagen). The DNA target sequence for PPAR-γ was 5′-[…]-3′. After transfection, cells in the 6-well plates were treated with either DMSO diluent or 10 nM RS5444 for 24 hours and then analyzed by either real time PCR or immunoblotting. Cells in the 12-well plates were exposed for 6 days with medium, and drug changed every 48 hours. After 6 days, cells were washed with PBS (Cellgro), trypsinized, and counted by Beckman Coulter Counter.

[2] = molecular target: T1, PPARγ (Homo sapiens, UniProt P37231); assay: PPRE3-tk-luc reporter (dual luciferase) assay in DRO cells; assay type: cell-based; parameters: endogenous in cells; host or cells: DRO90-1 (DRO) human anaplastic thyroid carcinoma cells; conditions: DRO cells, PPRE3-tk-luc reporter, 24 hours; read-out: EC50, concentration at which 50% maximal transcriptional response occurs
T1 sequence (P37231 1-505): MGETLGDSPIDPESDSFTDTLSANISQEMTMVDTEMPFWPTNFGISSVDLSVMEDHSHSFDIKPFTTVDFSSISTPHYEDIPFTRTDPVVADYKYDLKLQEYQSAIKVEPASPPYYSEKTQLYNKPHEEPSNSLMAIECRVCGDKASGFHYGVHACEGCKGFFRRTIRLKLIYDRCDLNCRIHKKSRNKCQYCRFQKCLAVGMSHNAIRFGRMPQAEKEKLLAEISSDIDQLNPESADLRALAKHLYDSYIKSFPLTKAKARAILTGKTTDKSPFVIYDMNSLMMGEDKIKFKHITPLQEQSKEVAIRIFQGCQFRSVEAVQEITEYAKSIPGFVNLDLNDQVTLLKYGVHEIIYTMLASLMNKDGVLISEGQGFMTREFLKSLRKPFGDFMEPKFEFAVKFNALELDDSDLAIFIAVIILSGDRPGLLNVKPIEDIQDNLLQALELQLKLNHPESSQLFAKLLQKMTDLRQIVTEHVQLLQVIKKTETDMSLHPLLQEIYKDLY
Experimental: The effects of PPARγ agonists on DRO cells were investigated. […] Firefly luciferase activity was normalized to renilla […] activity (RLU) and plotted as mean values ±S.D. (FIG. 3A).
Cells were transfected with siRNA for 72 hours followed by transfected with a PPRE3-tk-luc reporter and treatment with 10 nM RS5444 for 24 hours. […] Cotransfection with renilla luciferase allowed for normalization to relative light units (RLU).
Cells were plated in 6-well culture plates at initial concentrations of 2×10^5 cells/well. After overnight incubation, cells were transfected with PPRE/luc and CMV/renilla luciferase plasmid using Lipofectamine 2000 (Invitrogen), and after 24 hours, cells were treated with PPAR-γ agonists at indicated concentrations. After 24 hours of drug treatments, cells were washed with PBS and lysed in 1× reporter lysis buffer (Roche), and luciferase activity was measured with a Dual Luciferase assay kit (Promega, Madison Wis.) with a luminometer (Veritas/Turner Biosystems). The enzyme activity was normalized for efficiency of transfection on the basis of renilla activity levels and reported as relative light units (RLU).

[3] = tested on: ATC tumors implanted into athymic nude mice; assay: Affymetrix Plus 2.0 array, nucleic acid expression in DRO tumors implanted into athymic nude mice; assay type: in vivo
Experimental: Affymetrix Plus 2.0 arrays were used to identify nucleic acids altered between control vehicle-treated and RS5444-treated ATC cells from cell culture and tumors implanted ectopically into athymic nude mice. Cells in culture were treated with a single dose of 10 nM RS5444 for either 2, 6, or 24 hours. Animals were treated with 0.025% RS5444 after implantation of 1×10^6 DRO cells. Animals were fed a diet including 0.025% RS5444 for 35 days, and tumor volume was measured weekly. Tumor tissues were removed, RNA was isolated, and nucleic acid expression was analyzed. Examples of some nucleic acids, the expression of which was altered in both the animal derived tumors and cells in culture, are presented in Table 1. Some of the nucleic acids regulated by PPARγ in ATC cells (e.g., BMP2, MMP14, ANGPTL4, and ITGA5) are secreted polypeptides (Table 1).

EC50 [2]: ~1 nM
Compound: Cc1cc(Oc2ccc3nc(COc4ccc(CC5SC(=O)NC5=O)cc4)n(C)c3c2)cc(C)c1N (centres unmarked) [RS5444]
IC50 [1]: ~0.8 nM
Fold change in vivo, ADRB1 ([3]; ADRB1, 0.025% in diet for 35 days): −2 fold
Fold change in vivo, ANGPTL4 ([3]; ANGPTL4, 0.025% in diet for 35 days): 2 fold
Fold change in vivo, BMP2 ([3]; BMP2, 0.025% in diet for 35 days): 3.8 fold
Fold change in vivo, HR ([3]; HR, 0.025% in diet for 35 days): 1.5 fold
Fold change in vivo, IL1B ([3]; IL1B, 0.025% in diet for 35 days): 5.6 fold
Fold change in vivo, ITGA5 ([3]; ITGA5, 0.025% in diet for 35 days): 1.9 fold
Fold change in vivo, LMAN1 ([3]; LMAN1, 0.025% in diet for 35 days): −4.3 fold
Fold change in vivo, MMP14 ([3]; MMP14, 0.025% in diet for 35 days): 2.5 fold
Fold change in vivo, RhoB ([3]; RhoB, 0.025% in diet for 35 days): 2 fold
